Results as given in US10087170B2, “Compound, photosensitive resin composition including the same, and color filter” (SAMSUNG SDI CO., LTD., priority 2016, dated 2018).

Experiment: Evaluation 1: Solubility in organic solvents
Type: physicochemical
Conditions: 0.5 g compound, stirred at 25° C. and 100 rpm for 1 hour; for Amount of dissolved compound (wt %) Chloroform: solvent chloroform; for Amount of dissolved compound (wt %) Diacetone alcohol: solvent diacetone alcohol
Source text: Solubility Evaluation Reference
X: solubility of less than 1 wt %
∘: solubility of greater than or equal to 1 wt % and less than 5 wt %
⊚: solubility of greater than or equal to 5 wt %

SMILES | Amount of dissolved compound (wt %) Chloroform | Amount of dissolved compound (wt %) Diacetone alcohol
CC[N+](CC)=c1ccc2c(-c3ccccc3S(=O)(=O)[O-])c3ccc(N(C)CCCCCCN(C)c4ccc5c(-c6ccccc6S(=O)(=O)[O-])c6ccc(=[N+](CC)CC)cc-6oc5c4)cc3oc-2c1 [Chemical Formula 7] | ◯ (solubility of greater than or equal lo 1 wt % and less than 5 wt %) | ◯ (solubility of greater than or equal lo 1 wt % and less than 5 wt %)
CCN(CCCCCCN(CC)c1ccc2c(-c3ccccc3S(=O)(=O)[O-])c3ccc(=[N+](CC)CC)cc-3oc2c1)c1ccc2c(-c3ccccc3S(=O)(=O)[O-])c3ccc(=[N+](CC)CC)cc-3oc2c1 [Chemical Formula 8] | ◯ (solubility of greater than or equal lo 1 wt % and less than 5 wt %) | ◯ (solubility of greater than or equal lo 1 wt % and less than 5 wt %)
CCN(CCOC(=O)NCCCCCCNC(=O)OCCN(CC)c1ccc2c(-c3ccccc3S(=O)(=O)[O-])c3ccc(=[N+](CC)CC)cc-3oc2c1)c1ccc2c(-c3ccccc3S(=O)(=O)[O-])c3ccc(=[N+](CC)CC)cc-3oc2c1 [Chemical Formula 9] | ◯ (solubility of greater than or equal lo 1 wt % and less than 5 wt %) | ◯ (solubility of greater than or equal lo 1 wt % and less than 5 wt %)
CCN(CCOC(=O)CCCCCCC(=O)OCCN(CC)c1ccc2c(-c3ccccc3S(=O)(=O)[O-])c3ccc(=[N+](CC)CC)cc-3oc2c1)c1ccc2c(-c3ccccc3S(=O)(=O)[O-])c3ccc(=[N+](CC)CC)cc-3oc2c1 [Chemical Formula 10] | ◯ (solubility of greater than or equal lo 1 wt % and less than 5 wt %) | ◯ (solubility of greater than or equal lo 1 wt % and less than 5 wt %)
CCN(CCOC(=O)NCC1CCCC(CNC(=O)OCCN(CC)c2ccc3c(-c4ccccc4S(=O)(=O)[O-])c4ccc(=[N+](CC)CC)cc-4oc3c2)C1)c1ccc2c(-c3ccccc3S(=O)(=O)[O-])c3ccc(=[N+](CC)CC)cc-3oc2c1 (stereo not drawn) [Chemical Formula 11] | ◯ (solubility of greater than or equal lo 1 wt % and less than 5 wt %) | ◯ (solubility of greater than or equal lo 1 wt % and less than 5 wt %)
CC[N+](CC)=c1ccc2c(-c3ccccc3S(=O)(=O)[N-]S(=O)(=O)C(F)(F)F)c3ccc(N(C)CCCCCCN(C)c4ccc5c(-c6ccccc6S(=O)(=O)[N-]S(=O)(=O)C(F)(F)F)c6ccc(=[N+](CC)CC)cc-6oc5c4)cc3oc-2c1 [Chemical Formula 12] | ◯ (solubility of greater than or equal lo 1 wt % and less than 5 wt %) | ◯ (solubility of greater than or equal lo 1 wt % and less than 5 wt %)
C=C(C)C(=O)OCCNC(=O)OCC[N+](CC)=c1ccc2c(-c3ccccc3S(=O)(=O)[O-])c3ccc(N(C)CCCCCCN(C)c4ccc5c(-c6ccccc6S(=O)(=O)[O-])c6ccc(=[N+](CC)CCOC(=O)NCCOC(=O)C(=C)C)cc-6oc5c4)cc3oc-2c1 [Chemical Formula 13] | ⊚ (solubility of greater than or equal to 5 wt %) | ⊚ (solubility of greater than or equal to 5 wt %)
C=C(C)C(=O)OCCNC(=O)OCC[N+](CC)=c1ccc2c(-c3ccccc3S(=O)(=O)[O-])c3ccc(N(CC)CCCCCCN(CC)c4ccc5c(-c6ccccc6S(=O)(=O)[O-])c6ccc(=[N+](CC)CCOC(=O)NCCOC(=O)C(=C)C)cc-6oc5c4)cc3oc-2c1 [Chemical Formula 14] | ⊚ (solubility of greater than or equal to 5 wt %) | ⊚ (solubility of greater than or equal to 5 wt %)
CCN(CCOC(=O)NC1CCC(CC2CCC(NC(=O)OCCN(CC)c3ccc4c(-c5ccccc5S(=O)(=O)[O-])c5ccc(=[N+](CC)CC)cc-5oc4c3)CC2)CC1)c1ccc2c(-c3ccccc3S(=O)(=O)[O-])c3ccc(=[N+](CC)CC)cc-3oc2c1 (stereo not drawn) [Chemical Formula 16] | ◯ (solubility of greater than or equal lo 1 wt % and less than 5 wt %) | ◯ (solubility of greater than or equal lo 1 wt % and less than 5 wt %)
C=CC(=O)OCC[N+](CC)=c1ccc2c(-c3ccccc3S(=O)(=O)[O-])c3ccc(N(CC)CCCCCCN(CC)c4ccc5c(-c6ccccc6S(=O)(=O)[O-])c6ccc(=[N+](CC)CCOC(=O)C=C)cc-6oc5c4)cc3oc-2c1 [Chemical Formula 17] | ⊚ (solubility of greater than or equal to 5 wt %) | ⊚ (solubility of greater than or equal to 5 wt %)
C=C(C)C(=O)OCC[N+](CC)=c1ccc2c(-c3ccccc3S(=O)(=O)[O-])c3ccc(N(CC)CCCCCCN(CC)c4ccc5c(-c6ccccc6S(=O)(=O)[O-])c6ccc(=[N+](CC)CCOC(=O)C(=C)C)cc-6oc5c4)cc3oc-2c1 [Chemical Formula 18] | ⊚ (solubility of greater than or equal to 5 wt %) | ⊚ (solubility of greater than or equal to 5 wt %)
C=CC(=O)OCC[N+](CC)=c1ccc2c(-c3ccccc3S(=O)(=O)[O-])c3ccc(N(CC)CCCCCCN(CC)c4ccc5c(-c6ccccc6S(=O)(=O)[O-])c6ccc(=[N+](CC)CC)cc-6oc5c4)cc3oc-2c1 [Chemical Formula 19] | ⊚ (solubility of greater than or equal to 5 wt %) | ⊚ (solubility of greater than or equal to 5 wt %)
C=C(C)C(=O)OCC[N+](CC)=c1ccc2c(-c3ccccc3S(=O)(=O)[O-])c3ccc(N(CC)CCCCCCN(CC)c4ccc5c(-c6ccccc6S(=O)(=O)[O-])c6ccc(=[N+](CC)CC)cc-6oc5c4)cc3oc-2c1 [Chemical Formula 20] | ⊚ (solubility of greater than or equal to 5 wt %) | ⊚ (solubility of greater than or equal to 5 wt %)
C=C(C)C(=O)OCCNC(=O)OCC[N+](CC)=c1ccc2c(-c3ccccc3S(=O)(=O)[O-])c3ccc(N(CC)CCCCCCN(CC)c4ccc5c(-c6ccccc6S(=O)(=O)[O-])c6ccc(=[N+](CC)CC)cc-6oc5c4)cc3oc-2c1 [Chemical Formula 21] | ⊚ (solubility of greater than or equal to 5 wt %) | ⊚ (solubility of greater than or equal to 5 wt %)
CCN(CC)c1ccc2c(-c3ccccc3S(=O)(=O)[O-])c3ccc(=[N+](CC)CC)cc-3oc2c1 [Chemical Formula X, reference compound] | X (solubility of less than 1 wt %) | X (solubility of less than 1 wt %)
